Tested on: 276233-004-R-J1-PDC KRAS spheroids with HUVEC/MSC, viability
Assay: Anticancer human tumor 276233-004-R-J1-PDC patient-derived colon adenocarcinoma cell line growth inhibition [KRAS2]
Conditions: for IC50: curve of first compound; for viability, T/C: stronger effect = lower value
Source text: Multicellular complex tumor spheroid response to RAS pathway inhibitors in combination with a targeted agents in patient-derived cell lines with oncogenic KRAS variants from multiple cancer types
A high-throughput screen of multi-cell type tumor spheroids was designed to identify active combinations of targeted small molecules and KRAS pathway inhibitors. Complex spheroids include a stromal component modeled by human endothelial cells (HUVEC) and fibroblasts modeled by human mesenchymal stem cells (MSCs). The concentration ranges selected for each drug and investigational agent were based upon clinically achievable concentrations if the clinical Cmax of the agent was known.
Compounds. The drugs and investigational agents: BI-3406 (NSC825286), BAY-293 (NSC824723), batoprotafib (TNO155; NSC825523), sotorasib (AMG 510; NSC818433), MRTX1257 (NSC819558), elimusertib (BAY 1895344; NSC800525), molibresib (GSK525762; NSC774829), temuterkib (LY3214996; NSC803410), venetoclax (NSC766270), alisertib (NSC759677), olaparib (NSC753686), talazoparib (NSC767125), erdafitinib (NSC781556), ipatasertib (NSC767898), cabozantinib (NSC761068), nintedanib (NSC756659), abemaciclib (NSC768073), docetaxel (NSC628503), trametinib (NSC758246), and sapanisertib (NSC764658) were obtained from the National Cancer Institute (NCI) Developmental Therapeutics Program Chemical Repository. The FDA-approved anticancer drug set is available from the Developmental Therapeutics Program. […] The stock solutions were prepared in dimethyl sulfoxide (DMSO, Sigma-Aldrich, St. Louis, MO, cat. D2650) at 800-fold the tested concentration and stored at -70 degrees C prior to their use. All drugs and investigational agents were tested over a range starting from a high concentration at or near the clinical Cmax and decreasing in half-log increments. If the clinical Cmax for an agent had not been determined, the highest concentration tested was 10 microM.
Cell Culture. All cells were maintained in an incubator at 37 degrees C and 5% CO2 with 95% humidity. The PDC lines were cultured according to standard operating procedures established by the NCI PDMR (https://pdmr.cancer.gov/sops/default.htm). Briefly, all PDCs were thawed and cultured in Matrigel-coated flasks prepared with a working solution of 1X Ham's F-12 nutrient mix, without supplementation (Invitrogen, Waltham, MA, cat. 11765054), 100 U/mL penicillin-streptomycin (Invitrogen, cat. 15140122), and 2.5% Matrigel (Corning Inc., Corning, NY, cat. 354248) for the first three passages. All PDCs were cultured in complete DMEM/F-12 media containing advanced DMEM/F-12 (Invitrogen, cat. 12634028), 4.9% defined fetal bovine serum, heat inactivated (HyClone Laboratories Inc., Logan, UT, cat. SH30070.03HI), 389 ng/mL hydrocortisone (Sigma-Aldrich, cat. H4001), 9.7 ng/mL human EGF recombinant protein (Invitrogen, cat. PHG0313), 23.4 microg/mL adenine (Sigma-Aldrich, cat. A2786), 97.3 U/mL penicillin-streptomycin (Invitrogen, cat. 15140122), 1.9 mM L-glutamine (Invitrogen, cat. 25030081), and 9.7 microM Y-27632 dihydrochloride (Tocris Bioscience, Bristol, United Kingdom, cat. 1254). The PDCs were cultured in complete DMEM/F12 media without 9.7 microM Y-27632 dihydrochloride for at least two passages prior to the screen. The established cell line HOP-62 was cultured in RPMI 1640 medium, HEPES (Invitrogen, cat. 22400105) with 10% defined fetal bovine serum (HyClone Laboratories Inc., cat. SH30070.03) and 2 mM L-glutamine (Invitrogen, cat. 25030081). The pooled donor HUVEC were cultured in endothelial cell growth medium 2 (PromoCell, Heidelberg, Germany, cat. C-22011) and the hMSC were cultured in mesenchymal stem cell growth medium 2 (PromoCell, cat. C-28009). For all experiments, HUVEC and hMSC were used at passages </=5, while the malignant cell lines were used at passages </=15. […]

[1] = second compound 0.1 µM, first compound 0.0316 µM
[2] = second compound 0.1 µM, first compound 0.1 µM
[3] = second compound 0.1 µM, first compound 0.316 µM
[4] = second compound 0.1 µM, first compound 1 µM
[5] = second compound 0.1 µM, first compound 3.16 µM
[6] = second compound 0.1 µM, first compound 10 µM
[7] = second compound 0.316 µM, first compound 0.0316 µM
[8] = second compound 0.316 µM, first compound 0.1 µM
[9] = second compound 0.316 µM, first compound 0.316 µM
[10] = second compound 0.316 µM, first compound 1 µM
[11] = second compound 0.316 µM, first compound 3.16 µM
[12] = second compound 0.316 µM, first compound 10 µM
[13] = second compound 1 µM, first compound 0.0316 µM
[14] = second compound 1 µM, first compound 0.1 µM
[15] = second compound 1 µM, first compound 0.316 µM
[16] = second compound 1 µM, first compound 1 µM
[17] = second compound 1 µM, first compound 3.16 µM
[18] = second compound 1 µM, first compound 10 µM
[19] = second compound 3.16 µM, first compound 0.0316 µM
[20] = second compound 3.16 µM, first compound 0.1 µM
[21] = second compound 3.16 µM, first compound 0.316 µM
[22] = second compound 3.16 µM, first compound 1 µM
[23] = second compound 3.16 µM, first compound 3.16 µM
[24] = second compound 3.16 µM, first compound 10 µM
[25] = second compound 10 µM, first compound 0.0316 µM
[26] = second compound 10 µM, first compound 0.1 µM
[27] = second compound 10 µM, first compound 0.316 µM
[28] = second compound 10 µM, first compound 1 µM
[29] = second compound 10 µM, first compound 3.16 µM
[30] = second compound 10 µM, first compound 10 µM
[31] = second compound 0.1 µM, first compound 0.01 µM
[32] = second compound 0.316 µM, first compound 0.01 µM
[33] = second compound 1 µM, first compound 0.01 µM
[34] = second compound 3.16 µM, first compound 0.01 µM
[35] = second compound 10 µM, first compound 0.01 µM
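Further: cells exposed to agents for seven days before viability read.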
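Wherever viability, T/C is given: 100% = DMSO vehicle control wells and lower values mean fewer viable cells.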

Structure (SMILES)	IC50 (second compound 0.1 µM)	IC50 (second compound 0.316 µM)	IC50 (second compound 1 µM)	IC50 (second compound 3.16 µM)	IC50 (second compound 10 µM)	viability, T/C [1]	viability, T/C [2]	viability, T/C [3]	viability, T/C [4]	viability, T/C [5]	viability, T/C [7]	viability, T/C [8]	viability, T/C [9]	viability, T/C [10]	viability, T/C [13]	viability, T/C [14]	viability, T/C [19]	viability, T/C [20]	viability, T/C [25]	viability, T/C [26]	further results
COc1cc2nccc(Oc3ccc(NC(=O)C4(C(=O)Nc5ccc(F)cc5)CC4)cc3)c2cc1OC + COc1cc2nc(C)nc(NC(C)c3cc(N)cc(C(F)(F)F)c3)c2cc1OC1CCOC1	> 10 µM	> 10 µM	> 10 µM	> 10 µM	< 0.0316 µM	74.9%	98.7%	87.2%	92%	78.9%	85.9%	80.8%	111%	99.7%	84.7%	85.7%	75.8%	81.1%	22.5%	17.7%	viability, T/C [6]: 98.8%; viability, T/C [11]: 79.3%; viability, T/C [12]: 101%; viability, T/C [15]: 88.6%; viability, T/C [16]: 71.4%; viability, T/C [17]: 60.2%; viability, T/C [18]: 110%; viability, T/C [21]: 103%; viability, T/C [22]: 60.8%; viability, T/C [23]: 44.2%; viability, T/C [24]: 98.3%; viability, T/C [27]: 19.5%; viability, T/C [28]: 11.5%; viability, T/C [29]: 1.3%; viability, T/C [30]: 26.8%
CC1COCCN1c1cc(-c2ccnn2C)c2ccnc(-c3ccn[nH]3)c2n1 (stereo not given) + C=CC(=O)N1CCN(c2nc(=O)n(-c3c(C)ccnc3C(C)C)c3nc(-c4c(O)cccc4F)c(F)cc23)C(C)C1	> 3.16 µM	> 3.16 µM	> 3.16 µM	> 3.16 µM	1 µM	104%	88.4%	109%	63.1%	54.8%	96.2%	97.1%	77.6%	74.5%	105%	84.6%	110%	78.9%	62.9%	74.2%	viability, T/C [31]: 112%; viability, T/C [32]: 96.3%; viability, T/C [11]: 55.1%; viability, T/C [33]: 96%; viability, T/C [15]: 76.6%; viability, T/C [16]: 72.4%; viability, T/C [17]: 61.7%; viability, T/C [34]: 114%; viability, T/C [21]: 79.5%; viability, T/C [22]: 61.7%; viability, T/C [23]: 71%; viability, T/C [35]: 66%; viability, T/C [27]: 43.8%; viability, T/C [28]: 51.2%; viability, T/C [29]: 58.7%
CC(C)n1nc(-c2ccc3oc(N)nc3c2)c2c(N)ncnc21 + CC1OCC2(CCN(c3cnc(Sc4ccnc(N)c4Cl)c(N)n3)CC2)C1N	0.0678 µM	> 0.1 µM	0.0489 µM	0.0121 µM	0.00782 µM	54.1%	47.1%				53.8%	57.5%			52.5%	44.7%	40.3%	32.5%	43.4%	40.1%	viability, T/C (second compound 0.1 µM, first compound 0.000316 µM): 87.9%; viability, T/C (second compound 0.1 µM, first compound 0.001 µM): 104%; viability, T/C (second compound 0.1 µM, first compound 0.00316 µM): 71.9%; viability, T/C [31]: 69.7%; viability, T/C (second compound 0.316 µM, first compound 0.000316 µM): 90.9%; viability, T/C (second compound 0.316 µM, first compound 0.001 µM): 81.7%; viability, T/C (second compound 0.316 µM, first compound 0.00316 µM): 67.5%; viability, T/C [32]: 68.9%; viability, T/C (second compound 1 µM, first compound 0.000316 µM): 80.9%; viability, T/C (second compound 1 µM, first compound 0.001 µM): 68.1%; viability, T/C (second compound 1 µM, first compound 0.00316 µM): 77%; viability, T/C [33]: 59.1%; viability, T/C (second compound 3.16 µM, first compound 0.000316 µM): 73.7%; viability, T/C (second compound 3.16 µM, first compound 0.001 µM): 74.5%; viability, T/C (second compound 3.16 µM, first compound 0.00316 µM): 51.6%; viability, T/C [34]: 57.7%; viability, T/C (second compound 10 µM, first compound 0.000316 µM): 70.6%; viability, T/C (second compound 10 µM, first compound 0.001 µM): 66.8%; viability, T/C (second compound 10 µM, first compound 0.00316 µM): 64.4%; viability, T/C [35]: 45.9%
COC(=O)c1ccc2c(C(=Nc3ccc(N(C)C(=O)CN4CCN(C)CC4)cc3)c3ccccc3)c(O)[nH]c2c1 + COc1cc2nc(C)nc(NC(C)c3cc(N)cc(C(F)(F)F)c3)c2cc1OC1CCOC1	> 10 µM	> 10 µM	> 10 µM	2.75 µM	< 0.0316 µM	96.3%	77%	80.4%	83.1%	70%	94.1%	71.5%	74.2%	65.3%	78.6%	80.9%	72.1%	66.6%	24.1%	25.9%	viability, T/C [6]: 83.7%; viability, T/C [11]: 70%; viability, T/C [12]: 74.2%; viability, T/C [15]: 70%; viability, T/C [16]: 70.2%; viability, T/C [17]: 62.9%; viability, T/C [18]: 61.6%; viability, T/C [21]: 58.7%; viability, T/C [22]: 51.5%; viability, T/C [23]: 54.7%; viability, T/C [24]: 6.87%; viability, T/C [27]: 30.9%; viability, T/C [28]: 20.9%; viability, T/C [29]: 13.8%; viability, T/C [30]: 1.87%
